The test system of series [1] is Fatigue-Symptomatik nach SARS-COV-2-Infektion. The experiment in a line: Double-blind withdrawal trial, verum and placebo for 3 days each. The format is in vivo, Patienten. As to conditions: Pat. 2.1; on Amifampridin at start of verum phase (4 x 5 mg per day, days 1-3). The method, then: (§1) In den nachfolgend genannten Anwendungsbeispielen wurde 3,4-Diaminopyridin Amifamprindin (Formulierung als Fertigarzneimittel) verabreicht. Im Rahmen der doppelt-blind Studie wurden gleich aussende Kapseln mit Amifampridin oder Placebo apothekenseitig verblindet zubereitet, wobei nur apothekenseitig bekannt war welche Kapseln Wirkstoff oder Placebo enthielten.
Bei Pat. 2.1 und 2.2 waren zur Rekonvaleszenz eine Dauermedikation mit jeweils 20 mg Amifampridin pro Tag erforderlich und boten damit Voraussetzungen für einen doppelt-blinden Auslassversuch über jeweils 3 Tage.
Pat. 2.1 mit Verum an Tagen 1-3, nachfolgend Placebo an den Tagen 4-6: Pat. (Pat. 2.1) mit Bell-Score 90 begann bereits mit Amifampridin, wie vorstehend beschrieben, und setzte diese mit Blister mit 6 Tagesdosen je Tag ein Fach mit Kapseln für 3 Tage mit je 4 mal 5 mg Amifampridin fort. Die Dosierung betrugt jeweils für 3 Tage Placebo mit je 4mal Placebo-Kapseln für Patient 1 und 2 (Verum und Placebo).

Series [2] has the same test system. The experiment in a line: Patients 2.1 to 2.5: Bell-Score and sleep need with Amifampridin (Fig. 1 and 2). The class given is in vivo, Patienten. The source says:
(§2) Die Bell-score (oder skala) ist ein Massstab der Behinderung bei ME & CFS. Auch für Long Covid-Patient:innen ist sie geeignet. Die Bell-Skala ist individuell, da jeder Patientinnen eine unterschiedliche Belastungsintoleranz aufweist und das Erleiden von schweren Symptomen in Ruhe verhältnismässig unterschiedlich sein kann.
Die nachfolgenden Dosierungen der Patienten 2.1 bis 2.5 und die veränderten Bell-Sore Werte sowie das Schlafbedürfnis in Stunden sind in den Figuren 1 und 2 dargestellt (Fig. 1 Bells-Sore mit und ohne Amifampridin, Patienten 2.1 bis 2.5, Fig. 2: kumulierte Schlafzeit in 24 h).

The test system of series [3] is Fatigue-Symptomatik nach Covid-Infektion. The series is described as follows: Off-label case reports (Fall 1-3) in fatigue after Covid infection. The format is in vivo, Patienten.
Text: as §1
Ruhebedürfnis bis zu 20 Stunden pro Tag (brain fog) sowie ausgeprägter Konzentrationsschwäche.
Im Fall 2 wird eine Patientin beschrieben, die ebenfalls unter einer gravierenden Fatigue-Symptomatik nach Covid-Infektion 5/22 litt, eine zuzuordnende neurologische oder internistische Grunderkrankung bestand nicht. […] Die nachfolgenden Labor- und EKG-Kontrollen zur Erfassung substanzassoziierter Komplikationen waren unauffällig.
Im Fall 3 wird ein Patient beschrieben, der nach zweimaliger Covid-Infektion unter Fatigue-Symptomatik mit einem Schlafbedürfnis bis zu 2 x 9 Stunden pro Tag litt.

Series [4] has as its system Fatigue-Symptomatik bei Post-Covid-Syndrom. The experiment in a line: Further study / case series Pat. 1-5: Bell-Score and sleep need in post-Covid syndrome. The format is in vivo, Patienten.
Text: as §2
Es wurde eine weitere Studie an einer Patientengruppe durchgeführt.
Die Prävalenz eines Post-Covid-Syndroms (PCS) liegt bei 10-15 % nach SARS-COV-2-Infektion, neben spezifischen Organerkrankungen treten vielfältige funktionelle Beschwerden auf, vorrangig eine Fatigue-Symptomatik. Diese ist gekennzeichnet durch persistierende Müdigkeit, Schwäche, kognitive Defizite sowie vermehrtem Schlafbedürfnis. In dieser Studie bzw. Fallserie wird der Effekt von Amifampridin bei Patienten mit PCS beschrieben, die unter unphysiologisch gesteigertem Schlafbedürfnis sowie eingeschränkter Kognition litten. Zur Evaluation wurde der Bell-Score verwendet, der auf die Einschränkung der Vigilanz, körperlichen Belastbarkeit und Berufstätigkeit fokussiert.

For series [5], the system named is Lambert-Eaton-Myasthenie-Syndrom (LEMS). The settings on record: cited from earlier work.
Series [6] has as its system Fatigue-Symptomatik bei MS-Patienten. The settings on record: described in the literature; cited from earlier work.
The mark [7] stands for this setting: Pat. 2.5 (LEMS), initial 3 x 5 mg.
The mark [8] stands for this setting: Pat. 5 (LEMS), 3 or 4 x 5 mg as daily dose.

With `Nc1ccncc1N` [Amifampridin, Pyridin-3,4-diamin], the Bell-Score was determined as 90 in series [1]; 100 in series [2] (Pat. 2.1, after single intake of 5 mg, before 20 to 40); 80 in series [2] (Pat. 2.2, after 5 mg, before 40); 100 in series [2] (Pat. 2.3, after 5 mg, before 40); 80 in series [2] (Pat. 2.5 (LEMS), initial 3 x 5 mg, before 10); 50 in series [2] (Patientin 2.4, after 5 mg, before 20, Post-Covid-Myokarditis). Moreover, the Bell-Score in series [4] (Pat. 1, after 3 intakes of 5 mg over 24 h, before 20 to 40) came to 100; in series [4] (Pat. 2, after 3 doses of 5 mg, before 40), 100; in series [4] (Pat. 3, after one intake of 5 mg, before 40), 100; in series [4] (Pat. 4, 3 x 5 mg over 24 h, before 20, Post-Covid-Myokarditis), 50. In addition, the Schlafbedürfnis is listed as 7 Stunden / 24h in series [2] (Pat. 2.1, after single intake of 5 mg, before 12); 7-9 Stunden in series [2] (Pat. 2.2, after 5 mg, before 11-12); 7,5 Stunden /24 h in series [2] (Pat. 2.3, after 5 mg, before 12); 8-9 Stunden / 24h in series [2] (Pat. 2.5 (LEMS), initial 3 x 5 mg, before 16-18); 7 Stunden / 24h in series [4] (Pat. 1, after 3 intakes of 5 mg over 24 h, before 12); 7,5 Stunden /24 h in series [4] (Pat. 2, after 3 doses of 5 mg, before 12). Further, the Schlafbedürfnis in series [4] (Pat. 3, after one intake of 5 mg, before 11 to 12) is recorded as 7-9 Stunden; in series [4] (Pat. 5 (LEMS), 3 or 4 x 5 mg as daily dose, before 16 to 18), 8-9 Stunden / 24h. The “duration of the effect” value in series [2] (Pat. 2.2, 5 mg) is about 36 Stunden; in series [4] (Pat. 3, one intake of 5 mg), about 36 Stunden. The Vigilanz entry in series [2] (Pat. 2.3, after 5 mg) is reported as “uneingeschränkte Vigilanz”; in series [4] (Pat. 2, after 3 doses of 5 mg), “uneingeschränkte Vigilanz”. Moreover, the “Bell-Score in Bezug auf die muskulären Defizite” value in series [2] (Pat. 2.5 (LEMS), 3 x 20 mg plus 5 mg if needed (60 to 70 mg per day)) is “ca. 20”. The Fatigue entry in series [2] (setting [7]) is given as “sistierte die Fatigue”; in series [3] (Fall 2, Tagesdosis 3 x 5 mg), “sistiert die vorbestehende Fatigue vollständig”; in series [4] (setting [8]), “sistierte die Fatigue”. Also, the “muskuläre Belastbarkeit” value in series [2] (setting [7]) and in series [4] (setting [8]) was “gebesserte muskuläre Belastbarkeit” throughout. Besides, the “muskuläre Defizite” value in series [3] (Fall 1) is listed as “umgehende Besserung”. Besides, the Fatigue-Symptomatik result is recorded as “schlagartige Besserung” in series [3] (Fall 1, since Covid infection, sleep/rest need up to 20 Stunden pro Tag before); “komplette Besserung” in series [3] (Fall 2, 5 mg); “reduzierte Fatigue-Symptomatik” in series [4] (patient group of the further study, Post-Covid-Syndrom). In series [3] (Fall 2), the “Labor- und EKG-Kontrollen zur Erfassung substanzassoziierter Komplikationen” value was “unauffällig”. The Konzentrationsfähigkeit entry in series [3] (Fall 2, 5 mg) was “vollständiger Restitution”; in series [3] (Fall 3, 5 mg), “schlagartigen Besserung”. Moreover, the “zuzuordnende Nebenwirkung” value in series [3] (Fall 2, 5 mg) is given as “leichte periorale Parästhesien”. Moreover, the “Nebenwirkung (periorale Parästhesien)” value in series [3] (Fall 3, 5 mg) is “transiente periorale Parästhesien mit sehr geringer Intensität”. In addition, in series [3] (Fall 3, 5 mg), the “Schlaf- und Ruhebedürfnis” value is “physiologischem”. The “koindizierte Fatigue” value in series [5] (LEMS-Patienten, stated as known) is recorded as “Besserung”.
For the compound `Nc1ccncc1N` [Amifampridine Phosphate (Firdapse), Amifampridine Phosphate], in series [5] (LEMS, 20 bis 80 mg als Tagesdosen, J Clin Neuromuscul Dis. 2019), the “koinzidente Fatigue” value is recorded as “Besserung einer koinzidenten Fatigue”.
Regarding `Nc1ccncc1` [Fampridin], the “begleitende Fatigue-Symptomatik” value in series [6] is listed as “Besserung”.
